Measured values from patent US9801919B2, “Oral compositions containing enhanced antibacterial combinations of antioxidants and extracts of magnolia” (WM. WRIGLEY JR. COMPANY, priority 2008, dated 2017).

How the values were obtained:
S. mutans [1] = conditions: active principles of Magnolia Cortex extracts; cited from earlier work
S. mutans [2] = assay: MIC and FIC of MBE and common antioxidants against S. mutans (broth two-fold dilution); format: cell-based, Streptococcus mutans; conditions: sample alone, lowest concentration with no visible growth, aerobic 37° C., 1 to 2 days; for MIC: Streptococcus mutans
Procedure: (§1) To evaluate an enhanced effect of an active ingredient in combination of magnolia with antioxidant, the fractional inhibitory index (FIC) is computed according to equation (1): […]
The following tests were conducted on S. mutans.
BHA, gallic acid, octyl gallate and magnolia bark extract (MBE) sample were dissolved in ethanol to produce 1-10% working solution and was added to a nutrient broth and shaken well and was diluted two-fold in individual test tubes. A total of 0.2 milliliter (mL) of inoculated bacteria culture purchased from American Type Culture Collection (ATCC) was added to each test tube. The tubes were incubated aerobically at 37° C. for 1 to 2 days. […] FIC values were determined by equation 1.

S. sobrinus = assay: MIC and FIC of MBE and common antioxidants against S. sobrinus (broth two-fold dilution); format: cell-based, Streptococcus sobrinus; conditions: sample alone, lowest concentration with no visible growth, aerobic 37° C., 1-2 days; for MIC: Streptococcus sobrinus
Procedure: as §1
S. Sobrinus, another common pathogen associated with dental plaque is also associated with dental caries.
BHA, BHT, gallic acid, octyl gallate and magnolia bark extract (MBE) samples were dissolved in ethanol to produce 1-10% working solution and was added to a nutrient broth and shaken well and was diluted two-fold in individual test tubes A total of 0.2 mL of inoculated bacteria culture purchased from ATCC was added to each test tube. The tubes were incubated aerobically at 37° C. for 1-2 days.

Row | SMILES | bactericidal against S. mutans in in vitro MIC test (S. mutans [1]) | MIC (S. sobrinus) [µg/mL] | other results
1 | C=CCc1ccc(O)c(-c2cc(CC=C)ccc2O)c1 [magnolol] | bactericidal |  | 
2 | COc1ccc(O)c(C(C)(C)C)c1 [BHA, butylated hydroxyanisole] |  |  | MIC (ppm) (S. mutans [2]): 250 ppm; MIC (ppm) (S. sobrinus): 500 ppm
3 | CCCc1ccc(O)c(-c2cc(CCC)ccc2O)c1 [tetrahydromagnolol] | bactericidal |  | 
4 | Cc1cc(C(C)(C)C)c(O)c(C(C)(C)C)c1 [BHT, butylated hydroxytoluene] |  | > 2000 | 
5 | O=C(O)c1cc(O)c(O)c(O)c1 [Gallic acid] |  | > 2000 | MIC (S. mutans [2]): > 2000 µg/mL
6 | CCCCCCCCOC(=O)c1cc(O)c(O)c(O)c1 [Octyl gallate] |  | 250 | MIC (S. mutans [2]): 250 µg/mL
7 | CCCc1ccc(O)c(-c2ccc(O)c(CCC)c2)c1 [tetrahydrohonokiol] | bactericidal |  | 
8 | C=CCc1ccc(O)c(-c2ccc(O)c(CC=C)c2)c1 [honokiol] | bactericidal |  | 
